Experimental data as given in ChEMBL document CHEMBL1123116, “N-[[(Mercaptoacetyl)amino]benzoyl]glycines as mucolytic agents” (1985).

Assays:
Type in all cases: functional
Homo sapiens [1] = species on record: Homo sapiens; assay: Percent viscosity reduction after 15 min was tested for in vitro mucolytic activity using pooled human sputum adjusted to pH 7.5 and compared with saline by 0.03 M solution of the compound
Homo sapiens [2] = species on record: Homo sapiens; assay: Percent viscosity reduction after 5 min was tested for in vitro mucolytic activity using pooled human sputum adjusted to pH 7.5 and compared with saline by 0.03 M solution of the compound
Homo sapiens [3] = species on record: Homo sapiens; assay: Percent viscosity reduction after 10 min was tested for in vitro mucolytic activity using pooled human sputum adjusted to pH 7.5 and compared with saline by 0.03 M solution of the compound
Homo sapiens [4] = species on record: Homo sapiens; assay: Percent viscosity reduction after 15 min was tested for in vitro mucolytic activity using pooled human sputum adjusted to pH 7.5 and compared with saline by 0.03 M solution
Homo sapiens [5] = species on record: Homo sapiens; assay: Percent viscosity reduction after 15 min was tested for in vitro mucolytic activity using pooled human sputum adjusted to pH 7.5 and compared with 0.06 M NAC

| SMILES | Viscosity (Homo sapiens [1]) | Viscosity (Homo sapiens [2]) | Viscosity (Homo sapiens [3]) | Viscosity reduction (Homo sapiens [4]) | Viscosity (Homo sapiens [5]) |
| --- | --- | --- | --- | --- | --- |
| CC(=O)N[C@@H](CS)C(=O)O [ACETYLCYSTEINE] | 31% | 27% | 38% |  |  |
| O=C(O)CNC(=O)c1ccc(NC(=O)CS)cc1 |  |  |  | 73% | 15% |
| O=C(O)CNC(=O)c1cccc(NC(=O)CS)c1 | 90% | 64% | 84% | 60% |  |
| N.O=C(O)CNC(=O)c1cccc(NC(=O)CS)c1 |  |  |  | 59% |  |
| NCCN.O=C(O)CNC(=O)c1cccc(NC(=O)CS)c1 |  |  |  | 44% |  |
| O=C([O-])CNC(=O)c1cccc(NC(=O)CS)c1.[Na+] |  |  |  | 56% |  |
